Ki data for 16 molecules are collected here from ChEMBL document CHEMBL4033634, “Synthesis and biological evaluation of novel aromatic and heterocyclic bis-sulfonamide Schiff bases as carbonic anhydrase I, II, VII and IX inhibitors” (Bioorg Med Chem, 2017).

The target in the first assay is Carbonic anhydrase 1 (Homo sapiens, UniProt P00915). Nature of the assay: Inhibition of human carbonic anhydrase 1 incubated for 10 mins by stopped flow CO2 hydrase assay.
Carbonic anhydrase 1, sequence (P00915 whole entry): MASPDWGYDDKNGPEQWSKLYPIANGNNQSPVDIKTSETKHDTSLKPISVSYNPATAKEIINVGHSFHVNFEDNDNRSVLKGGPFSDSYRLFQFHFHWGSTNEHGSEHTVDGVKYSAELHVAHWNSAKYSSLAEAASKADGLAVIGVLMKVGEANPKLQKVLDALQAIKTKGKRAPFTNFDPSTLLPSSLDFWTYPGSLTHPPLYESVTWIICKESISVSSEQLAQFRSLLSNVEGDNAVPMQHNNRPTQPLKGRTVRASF
In general, Ki refers to a dissociation constant, usually derived from enzyme kinetics or from competition with a known ligand. The molecule `NS(=O)(=O)c1cccc(/N=C/c2ccc(/C=N/c3cccc(S(N)(=O)=O)c3)o2)c1` yielded an inhibition constant (Ki) greater than 10000 nM.

Another assay concerns the target Carbonic anhydrase 9 (Homo sapiens, UniProt Q16790). The assay can be described thus: Inhibition of human carbonic anhydrase 9 incubated for 10 mins by stopped flow CO2 hydrase assay.
Turning to `NS(=O)(=O)c1ccc(/N=C/c2cccc(/C=N/c3ccc(S(N)(=O)=O)cc3)c2)cc1`, the Ki was 93.1 nM.

For the molecule `NS(=O)(=O)c1ccc(/N=C/c2ccc(/C=N/c3ccc(S(N)(=O)=O)cc3)cc2)cc1`, the Ki came out at 934 nM. In the case of `NS(=O)(=O)c1cccc(/N=C/c2ccc(/C=N/c3cccc(S(N)(=O)=O)c3)o2)c1`, the Ki was 516 nM. This Ki lies about 1.8-fold lower than the previous one. Same read-out and setting: under `NS(=O)(=O)c1nnc(/N=C/c2ccc(/C=N/c3nnc(S(N)(=O)=O)s3)o2)s1` stands 5.9 nM. `NS(=O)(=O)c1cccc(/N=C/c2ccccc2/C=N/c2cccc(S(N)(=O)=O)c2)c1` registered an inhibitory constant (Ki) of 89.6 nM. The same measure, in the same setting: under `NS(=O)(=O)c1ccc(/N=C/c2ccc(/C=N/c3ccc(S(N)(=O)=O)cc3)o2)cc1` stands 76.2 nM. Same read-out and setting: under `NS(=O)(=O)c1cccc(/N=C/c2cccc(/C=N/c3cccc(S(N)(=O)=O)c3)c2)c1` stands 678 nM. On the same count and under the same terms, under `NS(=O)(=O)c1ccc(CC/N=C/c2ccc(/C=N/CCc3ccc(S(N)(=O)=O)cc3)cc2)cc1` stands 261 nM; under `NS(=O)(=O)c1nnc(/N=C/c2cccc(/C=N/c3nnc(S(N)(=O)=O)s3)c2)s1`, 0.5 nM; under `NS(=O)(=O)c1cccc(/N=C/c2ccc(/C=N/c3cccc(S(N)(=O)=O)c3)cc2)c1`, 1470 nM.

`NS(=O)(=O)c1nnc(/N=C/c2ccccc2/C=N/c2nnc(S(N)(=O)=O)s2)s1` displayed an inhibition constant Ki of 5.8 nM. The molecule `NS(=O)(=O)c1nnc(/N=C/c2ccc(/C=N/c3nnc(S(N)(=O)=O)s3)cc2)s1` displayed a Ki of 25.2 nM. For the molecule `NS(=O)(=O)c1ccc(CC/N=C/c2ccccc2/C=N/CCc2ccc(S(N)(=O)=O)cc2)cc1`, the Ki is 17.9 nM. This Ki and that of the molecule before are within 1.5-fold of each other. Same read-out and setting: under `NS(=O)(=O)c1ccc(CC/N=C/c2cccc(/C=N/CCc3ccc(S(N)(=O)=O)cc3)c2)cc1` stands 319 nM. On the same count and under the same terms, under `NS(=O)(=O)c1ccc(/N=C/c2ccccc2/C=N/c2ccc(S(N)(=O)=O)cc2)cc1` stands 21.8 nM; under `NS(=O)(=O)c1ccc(CC/N=C/c2ccc(/C=N/CCc3ccc(S(N)(=O)=O)cc3)o2)cc1`, 153 nM.
